Data: patent US10688099B2, “Methods for modulating the amount of RNA transcripts” (PTC Therapeutics, Inc., priority 2013, dated 2020)

Tested on: RNA isoforms in PNN 1-46 SMA type I patient-derived fibroblasts
Test: RNA Abundance Modulation (RNA isoform abundance, iFPM, HiSeq RNA sequencing)
Type: cell-based, human
Details: 24 hrs, PNN 1-46 fibroblasts
Protocol: Cells from a cell line of interest are cultured in conditions sufficient to yield the number of cells capable of generating enough RNA for subsequent sequencing steps. Cells from the tested cell line are contacted with a compound described herein.
To culture said cells, they are seeded, at appropriate concentrations in a volume of media in a cell culture container and incubated for 4, 5, 6, 7, 8, 9, 10, or more hours. A concentrated solution of compound in a vehicle (e.g., DMSO) is then added in sufficient volume to result in the intended final concentration of the compound, for example 100 nM, 500 nM, 1 μM, 5 μM, 10 μM, 15 μM, 20 μM, or more. The cells may also be treated with vehicle alone, as a control. A number of replicates of each concentration or control may be made (e.g., 2 replicates). The cells are then incubated at a constant temperature appropriate for cell culture of the particular cell line (e.g., 37° C.) for 6, 12, 18, 24, 48, or more hours. After incubation, the growth medium is removed and the cells are washed with the appropriate buffer (e.g., PBS). Cells are then removed from adherence to the cell culture container by treatment with a solution containing trypsin, and the trypsin subsequently quenched with the appropriate volume of buffer (e.g., DMEM-FBS). The cells are then pelleted with gentle centrifugation (e.g., ≤90×g centrifugal force) and resuspended in a buffer to lyse the cells for extraction of RNA. The cell lysates may then be frozen (e.g., at −80° C.) or, alternately, may immediately be used in a procedure to purify the RNA (e.g. by use of the RNEASY PLUS® minikit). The RNA from cell lysates is eluted in the appropriate volume of buffer (e.g., RNEASE-FREE H2O®). The resulting purified RNA may then be sequenced (e.g., using RNASeq) or analyzed using a human exon array (e.g., by GENECHIP® human exon array) to determine changes in the RNA levels in those cells treated with compound compared to those cells treated only with DMSO. The purified RNA may also be quantified by other methods known in the art.
Using the RNA data obtained from sequencing, exon array, or other methods, a statistical analysis can reveal changes in the RNA levels of compound-treated compared with control. For example, t-test p-values may be calculated for the data obtained through sequencing and exon array methods in order to compare compound-treated cells to those treated with the DMSO control. […] Analysis of the sequencing and exon array data may then also yield predictions about the cause of the aberrant amount of an RNA transcript in the cells (e.g., perturbation of RNA splicing, RNA transcription, or RNA stability). These predictions may be further confirmed by methods known in the art. For example, RT-PCR and RT-qPCR may be used to confirm the change in amount of RNA transcripts for one or more particular transcripts of interest.
Following the methods described above in Example 1, PNN 1-46 SMA type I patient-derived fibroblasts were treated with 300 nM or 3 μM Compounds 774 and 808 in 0.5% DMSO.
700,000 cells were seeded in 10 mL of medium (DMEM plus 10% FBS) in a T-75 flask. Cells were allowed to attach for at least 4 hrs, after which 50 μL of a 200× compound solution (100% DMSO) was added to each well, and the plate was incubated at 37° C. for 24 hrs.
At the end of the incubation period, the supernatant was removed and the cells where washed with PBS. TrypLE (Invitrogen) express solution was added (e.g. 1.5 mL per one T75 flask). The flasks were incubated for 3 to 5 min at 37° C. The trypsin was then quenched, e.g., by adding 10 mL DMEM-FBS.
Next, the cells were pelleted using gentle centrifugation without exceeding 90×g centrifugal force. The supernatant was removed and the cell pellet was re-suspended in 600 μL RLT buffer (the RLT buffer was supplemented with beta-mercaptoethanol according to the RNeasy protocol manual) by pipetting up and down until the pellet was completely dissolved […]

Cc1cn2cc(-c3cc(=O)n4cc(N5CCN(C)CC5)ccc4n3)cc(C)c2n1 [Compound 808]
RNA abundance modulation (effect on isoform fold increase) (0.3 μM): modulates RNA abundance | RNA abundance modulation (effect on isoform fold increase) (3 μM): modulates RNA abundance
